Experimental data published in patent publication US20120058133A1, “INHIBITION OF TRNA SYNTHETASES AND THERAPEUTIC APPLICATIONS THEREOF” (President and Fellows of Harvard College, priority 2009, published 2012).

What was measured:
TGFβ signaling = conditions: literature reports; cited from earlier work
[1] = test system: GCN2 phosphorylation / AAR pathway; test: AAR pathway activation in MEFs (GCN2, eIF2a phosphorylation, CHOP); assay type: cell-based, mouse
Description: FIG. 24. Activation of the AAR in cells by HF/FF occurs through inhibition of proline utilization. FIG. 24A is a gel showing HF-induction of the AAR pathway is reversed by proline. MEFs were treated with the indicated concentration of HF or FF in the presence or absence of 2 mM Proline for 2 hours (left) or treated with 1 μM borrelidin in the presence or absence of 2 mM Threonine for 2 hours (right). Cells were lysed and assessed by anti-pGCN2 or anti-GCN2 Western blot. Data are representative of three separate experiments.
FIG. 24B is a gel showing HF induction of eIF2a phosphorylation and CHOP expression is GCN2 dependent. Wild Type or GCN2−/− MEFs were treated with 50 nM HF in the presence or absence of 2 mM proline. Cells were lysed at 2 hours post-HF addition (peIF2a) or 6 hours post-HF addition (CHOP) and analyzed for phosphoprotein or total protein levels by Western blot.

[2] = assay type: in vitro ADME; conditions: mouse, 2 h, 20 nM
Description: MEFs were incubated with the indicated concentration of HF in the presence or absence of 2 mM proline for 2 hours and then lysed. Lysates were then tested for HF levels in comparison to a standard curve using known concentrations of HF with an anti-HF antibody based ELISA assay (see Example 9, “Materials and Methods”). Error bars reflect standard deviation of triplicate determinations. Similar results were obtained in three separate experiments.
Polyclonal anti-HF antibody was raised by immunizing rabbits with KLH coupled to an HF derivative (MAZ1356) containing a linker attached to the quinazolinone and terminated by a primary amino group. Crude antibody was affinity purified using MAZ1356 linked to NHS-agarose. For the ELISA assay, MAZ1356 was coupled to 96-well Reacti-bind Plates (Pierce). After binding, plates were blocked with 10% goat serum in PBS/0.2% Tween-20 (PBST). […] Captured antibody was quantitated using TMB based colorimetric detection (Pierce), and a standard curve for HF concentration fitted from the colorimetric data. […] To determine HF concentration in cells, 8 μl of cleared lysate (or control buffer) was incubated with anti-HF antibody in MAZ1356 bound wells, and captured antibody detected and quantitated as described above. HF concentration was then determined by fitting colorimetry results with cell samples to a standard curve of HF concentration. […]

EAE and CIA = conditions: mouse, in vivo; cited from earlier work
SV-MES mesangial cells = test: AAR activation in SV-MES mesangial (fibroblastic) cells; assay type: cell-based; conditions: 2 hours
Description: FIG. 11. HF induces a stress response in fibroblasts. SV-MES mesangial cells were stimulated for 2 hours with DMSO, 20 nM MAZ1310, or 20 nM HF. Whole cell lysates were analyzed for expression of phosphorylated or total eIF2α by western blotting.
Duplicate cell samples are shown. […] Activated GCN2 phosphorylates eif2alpha at Ser 51; therefore, this is an expected downstream outcome of AAR activation.

[3] = test system: mouse embryo fibroblasts (MEFs); test: ECM gene expression and protein production in MEFs; assay type: cell-based
Description: FIG. 26C. Proline rescues both HF stimulated and HF inhibited gene expression. MEFs were treated with or without HF (50 nM) and/or Proline (2 mM) for 4 hours (CHOP, S100A4) or 24 hours (CoLIA1, ColIA2). DMSO was used as vehicle control. Changes in mRNA levels are expressed as fold-change relative to control and normalized to expression of TBP. Error bars reflect standard deviation of determinations from plates of cells treated in triplicate, confidence interval (p-value) for the effect of HF alone versus HF+Pro was determined using a two-tailed Student's t test. Data are representative of two separate experiments.
FIG. 26D. HF-inhibition of collagen production is rescued by proline and doesn't affect overall protein synthesis. Cells were pre-incubated with HF with or without proline for 4 hours, and ^35S-methionine and HF with or without proline was added. 24 hours later, conditioned medium and total cell lysate was harvested. New production of Type I procollagen was measured in conditioned medium by Western blot, and bands quantitated using Image J quantitation software. The original blot is shown in FIG. 27; total protein synthesis was measured as TCA-precipitable ^35S in a scintillation counter. Error bars reflect standard deviation of triplicate determinations.
FIG. 33. Proline rescues HF-suppression of ECM protein production. MEFs were incubated for 4 hours in HF with or without 2 mM Pro, to measure new collagen production in conditioned medium (cells were washed into fresh DMEM/0.2% FBS with fresh HF and proline re-added, and either conditioned medium (for Type I procollagen) or total cell lysate (for fibronectin, […]) harvested twenty four hours later. Protein levels were assayed by Western blot.
Q-PCR was performed using the Roche LightCycle UPR system, using the following primers and probes: […]

For `O=C(CC1NCCCC1O)Cn1cnc2cc(Br)c(Cl)cc2c1=O` (racemic) [HF, halofuginone], the “concentration at which HF can attenuate TGFβ signaling” value (TGFβ signaling) is listed as > 50 nM, the “eIF2-alpha phosphorylation and CHOP induction in wild type vs GCN2−/− fibroblasts” value ([1]; 50 nM HF) is listed as “absent in GCN2−/− fibroblasts” and the “reversal of GCN2 phosphorylation by cognate amino acid” value ([1]; 2 mM proline or 2 mM threonine) is listed as “abrogated by the addition of 2 mM proline”. For the same molecule, the “GCN2 phosphorylation in fibroblasts” value ([1]; 2 hours, borrelidin 1 μM) was “Stimulation of GCN2 phosphorylation”, the “absolute HF concentration inside cells” value [2] was ~800 nM and the “activity in EAE and CIA models” value (EAE and CIA) was “active in these models”. The “eIF2α phosphorylation in cultured fibroblasts” value (SV-MES mesangial cells; 20 nM HF) was “increased eIF2α phosphorylation”, the “GCN2 Thr898 phosphorylation” value (SV-MES mesangial cells; 20 nM) was “activation of GCN2 phosphorylation” and the “mRNA levels of ColIA1, ColIA2, and S100A4” value ([3]; 50 nM HF, 4 or 24 hours) was “inhibited mRNA levels”. The “CHOP mRNA expression” value ([3]; 50 nM HF, 4 hours) was “stimulated”, the “reversal of HF effects on ECM genes and proteins by proline” value ([3]; 2 mM proline) was “reversed by the addition of 2 mM proline” and the production of fibronectin ([3]; 24 hours) was “dramatically inhibited”. The “production of secreted Type I procollagen protein” value ([3]; 24 hours) was “dramatically inhibited”.
